Measured values: patent publication US6680326B2, “Polycyclic compounds” (Hoffmann-La Roche Inc., priority 2001, dated 2004)
Converted amounts (≈) assume the structure as drawn.

test system: HCT116 cell line (colorectal cancer); assay: Anti-proliferative activity assay (WST-8, 4 days); assay type: cell-based; details: Homo sapiens, HCT-116, 96 h; in vitro growth of HCT116 cells, 4 days incubation, WST-8 readout
Experimental: A single suspension of tumor cells was inoculated to the serially diluted 96-well microtestplate. Then the testplate was incubated in the 5% CO2 ambience at 37° C. for 4 days (2-3×10^3 cells/well). The degree of cell growth in a monolayer was measured by using WST-8 (Dojindo, Japan). IC50 values of the polycyclic compounds concerned against tumor cells were calculated as the concentration of drug yielding 50% OD of the control growth. The IC50 value measures the drug concentration for 50% inhibition of the growth of tumor cells in vitro as compared to the control.
The anti-tumor activity of polycyclic compounds of the formula [I] against in vitro growth of HCT116 cell line (colorectal cancer) is summarized in Table 1.

| Compound | IC50 |
| --- | --- |
| CN(C)CCNc1nc2cc(O)ccc2c2c1C(=O)c1cnccc1-2 [Example 41, 6-(2-dimethylamino-ethylamino)-3-hydroxy-5,9-diaza-benzo[c]fluoren-7-one] | 0.35 ng/mL (≈ 0.00105 µM) |
| Cc1c(O)ccc2c3c(c(NCCN(C)C)nc12)C(=O)c1ccncc1-3 [Example 45, 6-(2-dimethylamino-ethylamino)-3-hydroxy-4-methyl-5,10-diaza-benzo[c]fluoren-7-one] | 3.9 ng/mL (≈ 0.0112 µM) |
| Cc1c(O)ccc2c3c(c(NCCN(C)C)nc12)C(=O)c1cnccc1-3 [Example 46, 6-(2-dimethylamino-ethylamino)-3-hydroxy-4-methyl-5,9-diaza-benzo[c]fluoren-7-one] | 2.2 ng/mL (≈ 0.00631 µM) |
| Cc1cc2c(cn1)-c1c(c(NCCN(C)C)nc3cc(O)ccc13)C2=O [Example 47, 6-(2-dimethylamino-ethylamino)-3-hydroxy-9-methyl-5,10-diaza-benzo[c]fluoren-7-one] | 3.9 ng/mL (≈ 0.0112 µM) |
| CN(C)CCNc1nc2cc(O)ccc2c2c1C(=O)c1ccccc1-2 [Reference compound, 6-(2-dimethylamino-ethylamino)-3-hydroxy-7H-indeno[2,1-c]quinolin-7-one, reference compound] | 12 ng/mL (≈ 0.036 µM) |
